The target in one data set is T1, AKT1 (Homo sapiens, UniProt P31749).
T1 construct: purchased SignalChem
As to the kind of experiment: AKT Kinase Assay (IMAP fluorescent polarisation), AKT1 isoform. It counts as biochemical. To be noted: for IC50: activated AKT1, FAM Crosstide substrate; for potency against AKT1 compared with the comparator compound: compared with the non-hydroxylated Compound A, F or L. The protocol:
(§1) Testing of the compounds was performed using an AKT Kinase Assay:
(§2) Activated AKT isoforms 1, 2 and 3 were assayed utilising a 5′ FAM Crosstide (Seq. GRPRTSSFAEG-OH). The extent of kinase phosphorylation was determined by fluorescent polarisation using IMAP progressive binding reagent, which introduces binding beads which allow the reagent to specifically bind to phosphate residues via covalent co-ordination complex bonds.
(§3) iMAP binding solution stops Crosstide/kinase interaction and specifically binds phosphorylated substrates. The degree of phosphorylation is determined by fluorescent polarisation (excitation 485 nm; emission 528 nm) or the reduction in speed of rotation of the excited substrate.
(§4) The following materials were used in the assay: • a) Activated AKT isoforms (SignalChem.) dissolved in Complete Reaction buffer at a predetermined concentration selected so that the assay was carried out in the linear range. • b) AKT substrate peptide: FAM Crosstide (R7110) Molecular Devices, diluted in complete reaction buffer. • c) iMAP Progressive Screening Express Kit (R8127) Molecular Devices • d) Complete Reaction Buffer containing 0.1% BSA, 10 mM Tris-HCl, 10 mM MgCl2, 0.05% NaN3 and 0.01% phosphate free BSA, 1 mM DTT • e) Progressive Binding Solution containing 75% Buffer A, 25% Buffer B and low volume Binding Reagent which contains the binding entity for the assay • f) ATP diluted in complete reaction buffer • g) Black polystyrene 384 well assay plates (Nunc). • h) Biotek Synergy 4 Hybrid Plate reader.
(§5) 5 μl of test compound was dissolved in DMSO (Sigma Aldrich) and serially diluted in complete reaction buffer to give a fourteen point half log dose response and plated into 384 well black plates. The compound was incubated at room temperature with activated AKT isoform (5 μl) at the predetermined concentration, for 45 min.
(§6) 2.5 μl of ATP solution mixed with 2.5 μl of AKT substrate peptide (FAM Crosstide (R7110) Molecular Devices) were dispensed into each well and the plate centrifuged at 1000 rpm for 20 seconds to ensure homogenous mixing of reagents. The reaction mix was incubated in the dark for 1 h at room temperature.
(§7) The kinase reaction was stopped by the addition of Progressive Binding Solution and the mixture allowed to equilibrate for 1 h in the dark, at room temperature.
(§8) The fluorescent polarisation generated in each well was determined using a […] Synergy 4 Hybrid plate reader. In brief, each reaction solution was excited at 485 nm with the emission measured at 528 nm in both the parallel and perpendicular pathway.
(§9) The polarisation value generated in each well was calculated by Gen5 software (Biotek) and the % inhibition of kinase activity compared to vehicle control was calculated via GraphPad Prism. IC50 values for each compound were calculated by non-linear regression analysis using Prism software.
(§10) All plates were internally controlled by two methods. Firstly, by calculating the signal:noise ratio; based on kinase polarisation without inhibitor and polarisation generated by complete reaction buffer in the absence of activated kinase. Secondly by determining IC50 values generated by known inhibitors of the AKT isoforms.
(§11) The data was analysed using GraphPad Prism, with IC50 values generated using non-linear regression of the data set.

For the next data set, the target named is T2, AKT2 (Homo sapiens, UniProt P31751).
T2 construct: purchased SignalChem
Nature of the data set: AKT Kinase Assay (IMAP fluorescent polarisation), AKT2 isoform. It counts as biochemical. To be noted: for IC50: activated AKT2, FAM Crosstide substrate; for potency against AKT2 compared with the comparator compound: compared with the non-hydroxylated Compound A, F or L. As for the experimental part:
as §1, §2, §3, §4, §5, §6, §7, §8, §9, §10, §11

The next data set addresses T3, AKT3 (Homo sapiens, UniProt Q9Y243).
T3 construct: purchased SignalChem
As to the kind of experiment: AKT Kinase Assay (IMAP fluorescent polarisation), AKT3 isoform. The format is biochemical. To be noted: for IC50: activated AKT3, FAM Crosstide substrate; for potency against AKT3 compared with the comparator compound: compared with the non-hydroxylated Compound A, F or L. The protocol: as §1, §2, §3, §4, §5, §6, §7, §8, §9, §10, §11

The subject of data set [1] is pAKT (Ser473) in PC3 cells. As to the kind of experiment: Inhibition of pAKT in PC3 cells. The format is cell-based. Conditions: Homo sapiens, PC-3, 24 h incubation, read-out: inhibition of pAKT in PC3 cell lines, IC50. The protocol: Analysis of Compound Effects on AKT Signalling Pathways: Inhibition of pAKT in PC3 Cells
PC3 cells were seeded overnight in 96 well plates followed by serum starvation for 4 h. Increasing concentrations of AKT inhibitor, in complete medium (RPMI 1640), were added to the cells and incubated for a further 24 h.
The cells were fixed in paraformaldehyde, permeabilised and blocked in BSA, followed by incubation with pAKT (Ser473) and total AKT antibody overnight (R&D Systems). Secondary antibody mixture was added, followed by a combination of fluorescent substrates added for a final incubation.
Fluorescent intensities for each antibody were read at 540/600 nm and 360/450 nm respectively on a Synergy 4 plate reader. The percentage change in fluorescent intensity was plotted against log concentration of inhibitor; to generate IC50 values (GraphPad Prism).

A further data set deals with kinases other than AKT1. As to the kind of experiment: SelectScreen kinase panel (Invitrogen). The format is biochemical. Conditions: for >=80% in Selectscreen (at 10 uM) other than AKT1: number of kinases other than AKT1 with >=80% at 10 uM. The protocol:
(§12) SelectScreen® data was determined at Invitrogen. Plasma protein binding and pharmacokinetic analyses were determined using standard protocols.

Data set [2] is described as follows: Plasma protein binding (fraction unbound, human plasma). It counts as in vitro ADME. As for the experimental part: as §12
Data set [3] in a line: Pharmacokinetic analysis, half-life in rat. The format is in vivo. Conditions: for half-life: rat, in vivo, read-out: T½ (rat) h. The protocol: as §12

Structures are written as SMILES. Structures can show the parent of a compound that is named as a salt.

T3 sequence (Q9Y243 whole entry): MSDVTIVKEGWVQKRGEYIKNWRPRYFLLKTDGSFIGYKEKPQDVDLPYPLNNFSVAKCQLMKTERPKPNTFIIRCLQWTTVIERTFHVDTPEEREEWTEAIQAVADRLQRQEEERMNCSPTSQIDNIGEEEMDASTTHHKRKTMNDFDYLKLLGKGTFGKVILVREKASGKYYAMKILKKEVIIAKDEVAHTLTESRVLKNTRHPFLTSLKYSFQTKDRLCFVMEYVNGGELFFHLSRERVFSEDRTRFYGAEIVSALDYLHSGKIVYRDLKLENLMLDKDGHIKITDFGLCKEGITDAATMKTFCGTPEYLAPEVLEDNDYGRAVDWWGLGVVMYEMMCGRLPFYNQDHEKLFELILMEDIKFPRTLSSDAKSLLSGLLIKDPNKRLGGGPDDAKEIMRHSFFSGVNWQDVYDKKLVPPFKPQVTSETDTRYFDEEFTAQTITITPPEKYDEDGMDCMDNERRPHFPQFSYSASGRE
T2 sequence (P31751 whole entry): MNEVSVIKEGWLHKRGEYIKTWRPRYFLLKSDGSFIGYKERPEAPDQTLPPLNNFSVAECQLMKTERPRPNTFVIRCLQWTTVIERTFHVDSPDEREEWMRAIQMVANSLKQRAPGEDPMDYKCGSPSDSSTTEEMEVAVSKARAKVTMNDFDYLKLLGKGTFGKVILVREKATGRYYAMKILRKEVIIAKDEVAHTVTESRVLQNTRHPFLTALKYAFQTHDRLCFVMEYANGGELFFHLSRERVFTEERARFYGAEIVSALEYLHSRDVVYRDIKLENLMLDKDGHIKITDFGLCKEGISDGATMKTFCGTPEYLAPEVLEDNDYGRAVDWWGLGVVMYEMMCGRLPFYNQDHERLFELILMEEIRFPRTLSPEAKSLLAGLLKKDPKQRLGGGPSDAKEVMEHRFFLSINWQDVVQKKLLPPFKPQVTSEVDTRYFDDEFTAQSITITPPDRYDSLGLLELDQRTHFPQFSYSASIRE
T1 sequence (P31749 whole entry): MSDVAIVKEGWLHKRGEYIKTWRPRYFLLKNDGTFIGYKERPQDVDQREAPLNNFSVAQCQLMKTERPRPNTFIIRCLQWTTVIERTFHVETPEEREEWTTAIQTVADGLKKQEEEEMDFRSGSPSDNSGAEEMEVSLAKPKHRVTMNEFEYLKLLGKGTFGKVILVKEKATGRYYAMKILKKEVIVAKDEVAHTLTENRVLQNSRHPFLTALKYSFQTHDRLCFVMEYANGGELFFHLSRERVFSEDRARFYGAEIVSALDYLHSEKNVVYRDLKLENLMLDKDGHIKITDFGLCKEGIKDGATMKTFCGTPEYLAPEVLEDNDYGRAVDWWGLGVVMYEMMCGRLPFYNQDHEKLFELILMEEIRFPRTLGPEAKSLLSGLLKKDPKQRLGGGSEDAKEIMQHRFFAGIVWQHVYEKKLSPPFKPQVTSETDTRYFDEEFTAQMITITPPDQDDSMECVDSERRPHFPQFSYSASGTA

On to `C[C@]1(O)C[C@](N)(c2ccc(-c3oc4ncn(CC(F)(F)F)c(=O)c4c3-c3ccccc3)cc2)C1` [Compound 1, 6-(4-((1s,3s)-1-Amino-3-hydroxy-3-methylcyclobutyl)phenyl)-5-phenyl-3-(2,2,2-trifluoroethyl)furo[2,3-d]pyrimidin-4(3H)-one.HCl], for which, on AKT1, the concentration for half-maximal inhibition (IC50) was 300 to 1500 nM and the “potency against AKT1 compared with the comparator compound” value is recorded as “improved potency”. Moreover, on AKT2, the IC50 is at most 20 nM and the “potency against AKT2 compared with the comparator compound” value is reported as “improved potency”. On AKT3, the IC50 lay within 1000 to 6000 nM and the “potency against AKT3 compared with the comparator compound” value is reported as “improved potency”. Further, the 50% inhibitory concentration (IC50) in data set [1] was at most 500 nM. For the same molecule, the “>=80% in Selectscreen (at 10 uM) other than AKT1” value (from here on “>=80% in Selectscreen”) in the data set on kinases other than AKT1 is “* (>2 kinases)”. In data set [2], the unbound share (fraction unbound) was at least 0.05 and the “unbound fraction (human plasma) compared with Compound A” value is reported as “significantly higher unbound fraction”. In data set [3], the half-life was at most 10 h and the “T1/2 in rodent compared with Compound A” value was “shorter T1/2”.
`N[C@]1(c2ccc(-c3oc4ncn(CC(F)(F)F)c(=O)c4c3-c3ccccc3)cc2)C[C@@H](O)C1` [Compound 2, 6-(4-((1r,3r)-1-Amino-3-hydroxycyclobutyl)phenyl)-5-phenyl-3-(2,2,2-trifluoroethyl)furo[2,3-d]pyrimidin-4(3H)-one. HCl]: the IC50 on AKT1 was above 1500 nM; on AKT2 it was at most 20 nM; on AKT3, above 6000 nM; in data set [1], at most 500 nM. Further, the “potency against AKT2 compared with the comparator compound” value on AKT2 is on record as “improved potency”.
Take `N[C@]1(c2ccc(-c3oc4ncn(CC(F)(F)F)c(=O)c4c3-c3ccccc3)cc2)C[C@H](O)C1` [Compound 3, 6-(4-((1s,3s)-1-Amino-3-hydroxycyclobutyl)phenyl)-5-phenyl-3-(2,2,2-trifluoroethyl)furo[2,3-d]pyrimidin-4(3H)-one.HCl]: the half-maximal inhibitory concentration (IC50) was 300 to 1500 nM at AKT1, at most 20 nM at AKT2, 1000 to 6000 nM on AKT3 and at most 500 nM in data set [1]. Moreover, on AKT1, the “potency against AKT1 compared with the comparator compound” value is “improved potency”. In addition, the “potency against AKT2 compared with the comparator compound” value at AKT2 is reported as “improved potency”. The “potency against AKT3 compared with the comparator compound” value on AKT3 is reported as “improved potency”.
For the molecule `C[C@]1(O)C[C@@](N)(c2ccc(-c3oc4ncn(CC(F)(F)F)c(=O)c4c3-c3ccccc3)cc2)C1` [Compound 4, 6-(4-((1r,3r)-1-Amino-3-hydroxy-3-methylcyclobutyl)phenyl)-5-phenyl-3-(2,2,2-trifluoroethyl)furo[2,3-d]pyrimidin-4(3H)-one.HCl], the IC50 is at most 300 nM on AKT1, at most 20 nM at AKT2, at most 1000 nM on AKT3 and at most 500 nM in data set [1]. For the same molecule, at AKT1, the “potency against AKT1 compared with the comparator compound” value is “improved potency”. Moreover, the “potency against AKT2 compared with the comparator compound” value on AKT2 was “improved potency”. The “potency against AKT3 compared with the comparator compound” value at AKT3 is on record as “improved potency”. In addition, in the data set with kinases other than AKT1 (compared with compound A), the “off-target kinase activity in the SelectScreen panel compared with Compound A” value is recorded as “less off-target kinase activity”. Further, in the data set on kinases other than AKT1, the “>=80% in Selectscreen” value is recorded as “** (1-2 kinases)”.
With `C[C@]1(O)C[C@@](N)(c2ccc(-c3sc4ncn(CC(F)(F)F)c(=O)c4c3-c3ccccc3)cc2)C1` [Compound 5, 6-(4-((1r,3r)-1-Amino-3-hydroxy-3-methylcyclobutyl)phenyl)-5-phenyl-3-(2,2,2-trifluoroethyl)thieno[2,3-d]pyrimidin-4(3H)-one.TFA], at AKT1, the half-inhibitory concentration (IC50) was at most 300 nM and the “potency against AKT1 compared with the comparator compound” value was “improved potency”. Moreover, on AKT2, the IC50 lay in the range of 20 to 100 nM and the “potency against AKT2 compared with the comparator compound” value is recorded as “improved potency”. Moreover, at AKT3, the IC50 was in the range of 1000 to 6000 nM and the “potency against AKT3 compared with the comparator compound” value is reported as “improved potency”. Moreover, the IC50 in data set [1] was at most 500 nM. Also, the “>=80% in Selectscreen” value with kinases other than AKT1 was “** (1-2 kinases)”. Moreover, in data set [2], the free fraction (fraction unbound) fell in the range of 0.02 to 0.05 and the “unbound fraction (human plasma) compared with Compound A” value is listed as “significantly higher unbound fraction”. In addition, in data set [3], the half-life is at most 10 h and the “T1/2 in rodent compared with Compound A” value is “shorter T1/2”.
In the case of `Cn1c(-c2ccc([C@]3(N)C[C@](C)(O)C3)cc2)c(-c2ccccc2)c2c(=O)n(CC(F)(F)F)cnc21` [Compound 6, 6-(4-((1r,3r)-1-Amino-3-hydroxy-3-methylcyclobutyl)phenyl)-7-methyl-5-phenyl-3-(2,2,2-trifluoroethyl)-3H-pyrrolo[2,3-d]pyrimidin-4(7H)-one.HCl], at AKT1, the 50% inhibitory concentration (IC50) was at most 300 nM and the “potency against AKT1 compared with the comparator compound” value is “improved potency”. In addition, at AKT2, the IC50 was at most 20 nM and the “potency against AKT2 compared with the comparator compound” value is “improved potency”. On AKT3, the half-maximal inhibitory concentration (IC50) is 1000 to 6000 nM and the “potency against AKT3 compared with the comparator compound” value is “improved potency”. Further, the half-maximal inhibitory concentration (IC50) in data set [1] was at most 500 nM. Besides, the “>=80% in Selectscreen” value with kinases other than AKT1 is given as “*** (0 kinases)”. Moreover, in data set [2], the fraction unbound lay within 0.02 to 0.05 and the “unbound fraction (human plasma) compared with Compound A” value was “significantly higher unbound fraction”. Moreover, in data set [3], the half-life is at most 10 h and the “T1/2 in rodent compared with Compound A” value is given as “shorter T1/2”.
For `Cn1c(-c2ccc([C@]3(N)C[C@@H](O)C3)cc2)c(-c2ccccc2)c2c(=O)n(CC(F)(F)F)cnc21` [Compound 7, 6-(4-((1s,3s)-1-Amino-3-hydroxycyclobutyl)phenyl)-7-methyl-5-phenyl-3-(2,2,2-trifluoroethyl)-3H-pyrrolo[2,3-d]pyrimidin-4(7H)-one.HCl], at AKT1, the IC50 lay in the range of 300 to 1500 nM and the “potency against AKT1 compared with the comparator compound” value is listed as “improved potency”. Moreover, at AKT2, the IC50 was at most 20 nM and the “potency against AKT2 compared with the comparator compound” value is reported as “improved potency”. Also, at AKT3, the IC50 was 1000 to 6000 nM and the “potency against AKT3 compared with the comparator compound” value is reported as “improved potency”. Also, the IC50 in data set [1] was at most 500 nM.
For `NC1(c2ccc(-c3oc4ncn(CC(F)(F)F)c(=O)c4c3-c3ccccc3)cc2)CCC1` [Compound A, reference compound], the half-maximal inhibitory concentration (IC50) on AKT1 was above 1500 nM; on AKT2 it was 20 to 100 nM; on AKT3, above 6000 nM. Also, the “>=80% in Selectscreen” value with kinases other than AKT1 is “* (>2 kinases)”. Moreover, in data set [2], the fraction unbound is at most 0.02. Besides, the half-life in data set [3] is above 24 h.

As usually defined, the IC50 is the concentration that gives 50% inhibition. Broadly, the fraction unbound is free concentration divided by total concentration. A high value points to much free substance.

Source of the values: US9156853B2, “AKT inhibitor compounds for treatment of cancer” (ALMAC DISCOVERY LIMITED, priority 2012, dated 2015).
